Data: patent publication US8722332B2, “Macrocyclic lactone resistance marker for dirofilaria immitis” (priority 2010, dated 2014)
“Also recorded” adds a separate entry of the source. Like-named read-outs stand apart in the source and are kept apart here. Marks after values point to notes of the source that are not given here.

Assays:
D. immitis mf = test system: D. immitis mf; set-up: species or system Dirofilaria immitis; conditions: in vivo
mf = conditions: in vivo; cited from earlier work
[1] = test system: adult heartworms (D. immitis antigen); set-up: species or system Dirofilaria immitis; conditions: in vivo; dihydrochloride
adult heartworms = conditions: dog, in vivo

CC[C@H](C)[C@H]1O[C@]2(CC[C@@H]1C)C[C@@H]1C[C@@H](C/C=C(\C)[C@@H](O[C@H]3C[C@H](OC)[C@@H](O[C@H]4C[C@H](OC)[C@@H](O)[C@H](C)O4)[C@H](C)O3)[C@@H](C)/C=C/C=C3\CO[C@@H]4[C@H](O)C(C)=C[C@@H](C(=O)O1)[C@]34O)O2 [IVM, ivermectin]
Microfilariae concentration in blood (D. immitis mf; po): ≧100^b mf/ml | Microfilariae in blood (Knott's test) (D. immitis mf; po): remained continually microfilaremic; also recorded: still microfilaremic; also recorded: Knott's test +ve^a | dose previously shown to kill mf (mf): 0.05 mg/kg

Cl.Cl.NCCS[As](SCCN)c1ccc(Nc2nc(N)nc(N)n2)cc1 [melarsomine, melarsomine dihydrochloride]
Antigen test DiroChek result (+ve or −ve) [1]: still negative; also recorded: DiroChek −ve^c | Antigen test PetChek result (+ve or −ve) [1]: negative; also recorded: PetChek −ve^a | Antigen test SNAP result (+ve or −ve) [1]: still negative; also recorded: SNAP −ve^a | clinical signs after adulticide (adult heartworms): transitory signs consistent with death of adult heartworms

milbemycin oxime [MO]
Microfilariae in blood (Knott's test) (D. immitis mf): remained continually microfilaremic; also recorded: mf were still present; also recorded: Knott's test +ve^a; also recorded: Knott's test +ve^c | dose previously shown to kill mf (mf): 0.5 mg/kg
